Experimental data published in patent US5455226A, “EGF-containing pharmaceutical composition for the treatment of bronchopulmonary pathologies” (Synthelabo, priority 1991, dated 1995).
Where “and” joins values, the source holds several entries; their conditions need not be identical. Equal values may be shown once.

Tests used:
[1] = tested on: surface epithelial cells dissociated from nasal polyp; assay: In vitro model of lesion of the respiratory epithelium: repair index; assay type: cell-based, human; conditions: for repair index: 10 ng/ml
Procedure: Surface epithelial cells dissociated from nasal polyp are cultured on a collagen I matrix in RPMI culture medium supplemented with hydrocortisone,retinoic acid, insulin and EGF (epidermal growth factor). After about 3 days of culture, when the cells have become confluent, the supplemented culture medium is replaced with unsupplemented RPMI medium. After incubating for 12 hours in the presence of unsupplemented medium, the culture is placed on the stage of an inverted microscope equipped with a micromanipulator. A microcapillary, guided by the micromanipulator, makes it possible to detach cells, thus creating a wound with a surface area of about 100,000 μm^2. The unsupplemented culture medium is then replaced with culture medium containing only EGF at different concentrations. Video recordings of the injured culture are then made every hour. Using these video recordings, an image analyser makes it possible to monitor the variation of the surface area of the wound as a function of time. A regression line between the surface area of the wound (expressed in μm^2) and the time (expressed in hours) makes it possible to calculate the slope of the regression line obtained, a slope which corresponds to the decrease in the surface area of the wound per unit of time. The latter parameter corresponds to the repair index (the higher the index, the faster the repair).
Eight nasal polyps were used to culture respiratory epithelial cells (5 culture dishes per polyp). In each of these dishes, the injured cultures are incubated either in the presence of unsupplemented culture medium, or in the presence of culture medium supplemented with EGF at various concentrations (5, 10, 20 or 50 ng/ml). From the variation of the surface area as a function of time (the repair index corresponds to the slope of the regression line between the surface area of the wound and time), we calculated the repair index. This index is then expressed relative to the repair index obtained with the EGF-free culture medium used as control. The results obtained show a systematic increase in the repair index for wounds in the presence of EGF. At a concentration of 5 and 10 ng/ml, EGF stimulates the repair by 38% and 36% respectively. At the concentration of 20 ng/ml, the stimulation is 49%.
This study was carried out under the same experimental conditions as above. The repair index for the wounds was quantified in the presence of unsupplemented culture medium and in the presence of culture medium supplemented either with EGF of mouse submaxillary gland (m-EGF: 10 ng/ml), or with recombinant human EGF (h-EGF: 10 ng/ml).

[2] = tested on: human respiratory epithelial cells (from nasal polyps); assay: Explant culture of respiratory epithelial cells: growth area around explants; assay type: cell-based; conditions: increasing EGF concentration up to 20 ng/ml; p<0.05
Procedure: (§1) Cultures of respiratory epithelial cells are obtained from nasal polyps by the technique of explants (growth of cells around the explant) and by the technique of dissociated cells cultured in a three-dimensional collagen matrix (collagen lattice).
(§2) The explants are cultured in the presence of varying concentrations (0, 5, 10 and 20 ng/ml) of EGF (EGF from mouse submaxillary glands, ref. E 4127, Sigma). The growth area around the explants is quantified after 3 and 4 days of culture. The percentage of growth area covered with ciliated cells as well as the ciliary beat frequency were measured after 3 days of culture. For the collagen lattice culture technique, the number of cells in culture was quantified up to 11 days after of culture, and this in the absence and in the presence of EGF (10 ng/ml).

[3] = tested on: human respiratory epithelial cells (from nasal polyps); assay: Dissociated respiratory epithelial cells cultured in a collagen lattice: cell number and morphology; assay type: cell-based
Procedure: as §1, §2

[4] = tested on: superficial respiratory epithelial cells; assay: Retraction of the collagen lattice by respiratory epithelial cells; assay type: cell-based, human; conditions: after 8 days of culture in the presence of EGF
Procedure: (§3) The study of the repair of wounds of the respiratory epithelium was performed on an in vitro model. Thirty to 50 cells are detached from the culture by means of a micromanipulator so as to expose the collagen matrix on which the epithelial cells proliferate. The repair of this injured region is monitored as a function of time on cultures in the presence of EGF (10 ng/ml) or in the absence of EGF. For the technique of culture of dissociated cells in a collagen lattice, the effect of EGF on the retraction of the collagen lattice was studied after 8 days of culture. This retraction is quantified by measuring the area of the collagen lattice.

[5] = tested on: ciliated cells of human respiratory epithelium; assay: Functional activity of ciliated cells in explant culture; assay type: cell-based; conditions: 20 ng/ml of EGF, after 3 days of culture
Procedure: as §1, §2

[6] = tested on: human respiratory epithelial cells in culture; assay: In vitro model of respiratory epithelium wound repair (30 to 50 cells detached by micromanipulator); assay type: cell-based; conditions: EGF 10 ng/ml
Procedure: as §3

Substance | repair index [1] [μm^2 /h] | growth area around the explants [2] | stimulation of the repair (repair index relative to EGF-free control) ([1]; EGF 5 ng/ml) [%] | stimulation of the repair (repair index relative to EGF-free control) ([1]; EGF 10 ng/ml) [%] | stimulation of the repair (repair index relative to EGF-free control) ([1]; EGF 20 ng/ml) | repair index compared with the index obtained with 20 ng/ml of EGF ([1]; EGF 50 ng/ml, p<0.05) | number of cells ([3]; after 8 days of culture, in the presence of EGF vs without) | rate of cell proliferation ([3]; collagen lattice, EGF 10 ng/ml, compared with cultures without EGF) | formation of three-dimensional structures ([3]; collagen lattice, EGF in the culture medium) | collagen lattice area [4] [mm^2] | ciliary beat frequency [5] [Hz] | percentage of the growth surface covered with ciliated cells [5] [%] | slope of the regression line (wound repair) [6]
h-EGF: recombinant human EGF (Sigma, Ref. E-3264) | 11492 | – | – | – | – | – | – | – | – | – | – | – | –
EGF: Epidermal Growth Factor polypeptide from mouse submaxillary glands, ref. E 4127, Sigma | 11215 | substantial increase in the growth area | 38 | 36 | 49% and ~50% | significantly (p<0.05) reduced | twice as high | higher | promotes the formation of tubular type three-dimensional structures | 660 | 14.5 | 43 | -71.8
